The values that follow come from publication PMC6017873 (Molecules : A Journal of Synthetic Chemistry and Natural …, 2018).

Where “and” joins values, the source holds several entries; their conditions need not be identical. Identical values can stand only once. Some results are limits rather than exact numbers.

The target in one data set is T1, HDAC10 (Homo sapiens, UniProt Q969S8).
T1 sequence (Q969S8 1-669): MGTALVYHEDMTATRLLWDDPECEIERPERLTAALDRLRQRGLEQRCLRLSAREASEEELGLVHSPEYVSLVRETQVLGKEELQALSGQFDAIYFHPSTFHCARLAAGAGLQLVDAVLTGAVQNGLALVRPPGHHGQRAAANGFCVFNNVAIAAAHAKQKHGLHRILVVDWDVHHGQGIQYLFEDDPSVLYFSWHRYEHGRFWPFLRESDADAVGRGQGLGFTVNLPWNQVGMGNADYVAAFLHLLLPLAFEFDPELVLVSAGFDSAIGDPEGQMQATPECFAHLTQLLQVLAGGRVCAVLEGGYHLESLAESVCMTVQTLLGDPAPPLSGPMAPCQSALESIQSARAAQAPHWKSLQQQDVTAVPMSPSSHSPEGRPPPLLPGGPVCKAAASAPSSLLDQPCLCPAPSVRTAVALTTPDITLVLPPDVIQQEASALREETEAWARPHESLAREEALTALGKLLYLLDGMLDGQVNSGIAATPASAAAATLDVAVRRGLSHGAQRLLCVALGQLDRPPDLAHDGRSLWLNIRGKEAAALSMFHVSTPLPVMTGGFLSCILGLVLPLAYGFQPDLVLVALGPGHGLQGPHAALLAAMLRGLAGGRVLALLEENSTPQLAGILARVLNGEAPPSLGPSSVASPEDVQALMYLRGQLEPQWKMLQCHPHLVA
Put plainly: Selective in vitro HDAC activity assay, recombinant HDAC10. It counts as biochemical. Particulars: 100 µM. The method, then:
(a) In vitro total HDAC activity was evaluated using K-562 nuclear extracts in the presence of various concentrations of eurochevalierine. (b) Selective in vitro HDAC activity assays were carried out using selected recombinant HDAC proteins in the presence of various concentrations of eurochevalierine. Results are reported as percent of DMSO vehicle control and expressed as the mean ± SD of three independent experiments. * and ** indicate p < 0.05 and p < 0.01 versus untreated cells, respectively.

In data set [1] the test system is primary human CD34+ stem/progenitor cells. In words: Growth and viability of primary CD34+ stem/progenitor cells. It counts as cell-based. The method, then:
Figure 7 Only very high concentrations of eurochevalierine impair the growth of healthy primary human CD34^+ stem/progenitor cells. CD34^+ cells were incubated with the indicated concentrations of eurochevalierine and cell growth (a) and viability (b) were assessed after 72 h of treatment. Results correspond to the mean ± SD of three independent experiments with * and ** indicate p < 0.05 and p < 0.01 versus control.
Primary CD34^+ progenitor/stem cells were isolated from human umbilical cord blood obtained from the Clinique Bohler (Hôpitaux Robert Schuman, Luxembourg, Luxembourg) with the written informed consent of parents with the approval of the National Research Ethics Committee of Luxembourg. First, mononucleated cells were isolated by Ficoll™ (GE Healthcare, Roosendaal, The Netherlands) density gradient centrifugation. CD34^+ cells were then purified out from mononucleated cells using magnetic cell sorting following the manufacturer’s instructions (MACS Miltenyi, Utrecht, The Netherlands).
High purity CD34^+ cells were treated after 3 days of amplification in Stemline® II Hematopoietic Stem cell Expansion Medium (Sigma) supplemented with 1% antibiotic-antimycotic (BioWhittaker®, Lonza, Verviers, Belgium), 4 mM L-glutamine (BioWhittaker®), 50 ng/mL stem cell factor (ReliaTech, Wolfenbüttel, Germany), and 10 ng/mL interleukin 3 (Reliatech, Wolfenbüttel, Germany). Other cell models were cultured in RPMI1640 (BioWhittaker®) supplemented with 10% heat-inactivated fetal calf serum (BioWhittaker®) and 1% antibiotic-antimycotic. Cell lines were cultured at 37 °C in a humid atmosphere and at 5% CO2.
PBMCs and CD34^+ cells were processed through a semi-automated image-based cell analyzer (Cedex XS Innovatis, Roche, Luxembourg), which provides information about cell concentration and viability based on the Trypan Blue exclusion method.

The target of another data set is T2, SIRT2 (Homo sapiens, UniProt Q8IXJ6).
T2 sequence (Q8IXJ6 1-389): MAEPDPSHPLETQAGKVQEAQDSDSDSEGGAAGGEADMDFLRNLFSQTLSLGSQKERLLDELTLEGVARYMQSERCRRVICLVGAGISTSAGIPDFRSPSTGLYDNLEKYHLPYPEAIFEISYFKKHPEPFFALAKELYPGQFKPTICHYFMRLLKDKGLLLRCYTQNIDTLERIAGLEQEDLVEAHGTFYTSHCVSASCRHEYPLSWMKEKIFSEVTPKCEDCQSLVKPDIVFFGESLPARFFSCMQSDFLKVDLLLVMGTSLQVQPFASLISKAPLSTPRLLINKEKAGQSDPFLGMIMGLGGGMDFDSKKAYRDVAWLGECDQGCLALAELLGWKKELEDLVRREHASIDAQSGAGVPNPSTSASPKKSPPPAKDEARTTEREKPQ
Put plainly: In vitro SIRT2 activity assay. The settings on record: IC50 SIRT2, mean ± SD of three independent experiments.

Usually IC50 stands for the concentration needed to halve the response being measured. One may read the inhibition as the share of the control response that was lost under treatment. As for `C=C(C)[C@@H]1CC[C@@H](C)[C@@]2(O)[C@@H]1C=C(C)[C@@H](OC(C)=O)[C@@H]2OC(=O)[C@H](CC(=O)c1ccccc1NC)NC=O` [Eurochevalierine, eurochevalierine], the “effect on HDAC10 deacetylase activity” value on HDAC10 is “without effect”. Moreover, in data set [1] (200 µM, 72 h), the “impact on CD34+ cell viability” value is on record as “minor impact on cell viability”. For the same molecule, the half-inhibitory concentration (IC50) in data set [1] (Homo sapiens, 72 h, read-out: IC50 growth inhibition of CD34+ cells) was > 200 µM; on SIRT2, 10 µM and ~10 µM and 10.2 µM. The inhibition at 200 µM in data set [1] (Homo sapiens, 200 µM, 72 h, read-out: maximum growth inhibition of CD34+ cells) is ~30%. Besides, the “selectivity factor cancer cells versus normal proliferating CD34+ cells” value in data set [1] (IC50 in healthy cells (>200 µM) versus mean IC50 in cancer cells (28 µM)) is given as > 7.
